Molecular target: PI3Kβ (Homo sapiens (Human), UniProt P42338)
Assay: In vitro enzyme inhibition assay (Kinase Glo based enzyme activity assay)
Type: biochemical
Conditions: Test (a), human recombinant enzyme; read-out: PI3Kβ inhibition, IC50
Protocol: (a) In Vitro Enzyme Inhibition Assay
The inhibition of PI3Kβ, PI3Kα, PI3Kγ and PI3Kδ was evaluated in a Kinase Glo based enzyme activity assay using human recombinant enzymes. The assay measures depletion of ATP after incubation with enzyme, PIP2 and ATP plus compound. ATP at the end of the reaction is detected by addition of Kinase Glo reagent, in this the Ultra Glo™ luciferase (Promega) uses the ATP as a substrate to catalyze the mono-oxygenation of luciferin and the generation of light. A direct relationship exists between the luminescence measured with the Kinase-Glo Plus Reagent and the amount of ATP remaining in a completed kinase reaction and luminescence is inversely related to kinase activity. Twelve different compound concentrations were tested and raw data from the inhibition of PI3 Kb, PI3Kα, PI3Kγ and PI3Kδ was plotted versus inhibitor concentration.
Compounds in 100% DMSO were added to assay plates by acoustic dispensing. PI3Kβ was added in a Tris buffer (50 mM Tris pH7.4, 0.05% CHAPS, 2.1 mM DTT, and 10 mM MgCl2) and allowed to preincubate with compound for 20 minutes prior to addition of substrate solution containing PIP2 and ATP. The enzyme reaction was stopped after 80 minutes by the addition of Kinase Glo detection solution. Plates were left for 30 minutes at room temperature then read on a Pherastar Instrument (Luminescence ATP 384 program) setting gain on max well. The final concentration of DMSO, ATP and PIP2 in the assay were, 1%, 80 μM, and 80 μM respectively.
IC50 values were calculated using a log curve fitting to a non-linear regression package, fitting raw data to inhibitor concentration.

Chain of PI3Kβ (P42338 whole entry): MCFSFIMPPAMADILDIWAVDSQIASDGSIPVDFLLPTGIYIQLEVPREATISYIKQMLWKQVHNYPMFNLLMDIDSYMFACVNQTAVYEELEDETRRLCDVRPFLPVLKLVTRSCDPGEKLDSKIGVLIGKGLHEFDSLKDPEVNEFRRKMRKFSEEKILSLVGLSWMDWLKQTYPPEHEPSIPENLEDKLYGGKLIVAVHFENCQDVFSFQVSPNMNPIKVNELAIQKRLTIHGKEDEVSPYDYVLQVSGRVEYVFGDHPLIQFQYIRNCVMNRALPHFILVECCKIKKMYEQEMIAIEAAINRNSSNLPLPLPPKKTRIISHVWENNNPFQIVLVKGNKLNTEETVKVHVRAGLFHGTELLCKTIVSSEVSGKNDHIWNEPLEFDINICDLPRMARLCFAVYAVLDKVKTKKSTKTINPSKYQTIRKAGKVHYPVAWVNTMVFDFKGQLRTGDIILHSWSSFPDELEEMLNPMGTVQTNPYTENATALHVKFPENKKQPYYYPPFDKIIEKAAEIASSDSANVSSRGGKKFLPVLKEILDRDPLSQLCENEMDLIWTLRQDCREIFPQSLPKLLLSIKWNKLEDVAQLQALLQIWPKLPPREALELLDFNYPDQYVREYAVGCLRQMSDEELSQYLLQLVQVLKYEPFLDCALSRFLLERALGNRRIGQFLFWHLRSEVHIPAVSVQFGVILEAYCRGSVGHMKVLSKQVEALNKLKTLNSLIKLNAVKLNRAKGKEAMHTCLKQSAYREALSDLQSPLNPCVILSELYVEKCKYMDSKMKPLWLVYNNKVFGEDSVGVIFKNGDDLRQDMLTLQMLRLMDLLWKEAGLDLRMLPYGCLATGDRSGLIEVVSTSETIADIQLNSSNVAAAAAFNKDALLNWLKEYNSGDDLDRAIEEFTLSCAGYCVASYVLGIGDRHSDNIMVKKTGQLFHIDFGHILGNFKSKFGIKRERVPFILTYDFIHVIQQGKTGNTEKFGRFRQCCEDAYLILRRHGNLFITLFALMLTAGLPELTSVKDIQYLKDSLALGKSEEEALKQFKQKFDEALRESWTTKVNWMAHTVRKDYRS
Chain of PI3Kβ (P27986 whole entry partner): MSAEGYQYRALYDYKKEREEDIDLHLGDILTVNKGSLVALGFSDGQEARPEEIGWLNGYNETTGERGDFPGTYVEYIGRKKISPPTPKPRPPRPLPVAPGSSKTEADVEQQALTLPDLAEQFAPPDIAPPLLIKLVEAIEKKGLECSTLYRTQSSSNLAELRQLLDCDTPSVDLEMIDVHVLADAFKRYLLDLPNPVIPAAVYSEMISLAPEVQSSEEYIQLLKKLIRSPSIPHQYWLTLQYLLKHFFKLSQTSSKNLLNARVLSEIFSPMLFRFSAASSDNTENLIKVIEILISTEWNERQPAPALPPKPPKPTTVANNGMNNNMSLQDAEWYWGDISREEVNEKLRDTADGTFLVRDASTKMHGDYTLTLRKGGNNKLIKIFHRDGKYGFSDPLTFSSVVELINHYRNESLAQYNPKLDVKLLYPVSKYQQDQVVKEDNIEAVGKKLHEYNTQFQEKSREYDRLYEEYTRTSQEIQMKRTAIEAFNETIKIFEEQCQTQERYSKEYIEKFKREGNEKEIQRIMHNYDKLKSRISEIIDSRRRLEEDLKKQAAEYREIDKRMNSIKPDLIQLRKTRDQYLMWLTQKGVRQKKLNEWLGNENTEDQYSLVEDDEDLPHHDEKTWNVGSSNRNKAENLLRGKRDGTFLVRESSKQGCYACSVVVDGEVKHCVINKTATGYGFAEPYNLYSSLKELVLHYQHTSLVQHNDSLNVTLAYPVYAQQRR

Compound | IC50 [nM]
CC(Nc1cccc(F)c1)c1cc(C(=O)NCCN(C)C)cc2c(=O)cc(N3CCOCC3)oc12 (stereo not shown) [Example 1.01, N-(2-(dimethylamino)ethyl)-8-(1-(3-fluorophenylamino)ethyl)-2-morpholino-4-oxo-4H-chromene-6-carboxamide] | 1
CC(Nc1cccc(Cl)c1F)c1cc(C(=O)N2CCC(O)CC2)cc2c(=O)cc(N3CCOCC3)oc12 (stereo not shown) [Example 2.06, 8-(1-(3-chloro-2-fluorophenylamino)ethyl)-6-(4-hydroxypiperidine-1-carbonyl)-2-morpholino-4H-chromen-4-one] | 6
CC(Nc1ccc(F)c(F)c1)c1cc(C(=O)N(C)C)cc2c(=O)cc(N3CCOCC3)oc12 (single isomer, unassigned) [Example 3.03b, 8-(1-(3,4-difluorophenylamino)ethyl)-N,N-dimethyl-2-morpholino-4-oxo-4H-chromene-6-carboxamide] | 3
CC(Nc1cc(F)cc(F)c1)c1cc(C(=O)N(C)C)cc2c(=O)cc(N3CCO[C@@H](C)C3)oc12 (single isomer, unassigned) [Example 9.02a] | 22700
CC(Nc1cc(F)cc(F)c1)c1cc(C(=O)N2CC[C@H](O)C2)cc2c(=O)cc(N3CCOCC3)oc12 (single isomer, unassigned) [Example 2.08] | 7
CC(Nc1ccc(F)c(F)c1)c1cc(C(=O)N(C)C)cc2c(=O)cc(N3CCOCC3)oc12 (single isomer, unassigned) [Example 3.03a, 8-(1-(3,4-difluorophenylamino)ethyl)-N,N-dimethyl-2-morpholino-4-oxo-4H-chromene-6-carboxamide] | 649
CC(Nc1cccc(Cl)c1F)c1cc(C(=O)NCCN(C)C)cc2c(=O)cc(N3CCOCC3)oc12 (stereo not shown) [Example 2.00, 8-(1-(3-chloro-2-fluorophenylamino)ethyl)-N-(2-(dimethylamino)ethyl)-2-morpholino-4-oxo-4H-chromene-6-carboxamide] | 9
CC(Nc1ccc(F)c(Cl)c1)c1cc(C(=O)N(C)CCO)cc2c(=O)cc(N3CCOCC3)oc12 (stereo not shown) [Example 2.04, 8-(1-(3-chloro-4-fluorophenylamino)ethyl)-N-(2-hydroxyethyl)-N-methyl-2-morpholino-4-oxo-4H-chromene-6-carboxamide] | 4
CC(Nc1cc(F)cc(F)c1)c1cc(C(=O)N(C)C)cc2c(=O)cc(N3CCO[C@H](C)C3)oc12 (stereo partly drawn) [Example 9.01, 8-(1-(3,5-difluorophenylamino)ethyl)-N,N-dimethyl-2-((R)-2-methylmorpholino)-4-oxo-4H-chromene-6-carboxamide] | 4
CC(Nc1cccc(Cl)c1F)c1cc(C(=O)N(C)C)cc2c(=O)cc(N3CCOCC3)oc12 (single isomer, unassigned) [Example 3.04a, 8-(1-(3-chloro-2-fluorophenylamino)ethyl)-N,N-dimethyl-2-morpholino-4-oxo-4H-chromene-6-carboxamide] | 2250
CC(Nc1ccc(F)cc1)c1cc(C(=O)N(C)CCN(C)C)cc2c(=O)cc(N3CCOCC3)oc12 (stereo not shown) [Example 2.02, N-(2-(dimethylamino)ethyl)-8-(1-(4-fluorophenylamino)ethyl)-N-methyl-2-morpholino-4-oxo-4H-chromene-6-carboxamide] | 7

The remaining lines, values ahead:

IC50 [nM] | Compound
5 | CC(Nc1cc(Cl)cc(Cl)c1)c1cc(C(=O)N(C)C)cc2c(=O)cc(N3CCOCC3)oc12 (stereo not shown) [Example 3.33, 8-(1-(3,5-dichlorophenylamino)ethyl)-N,N-dimethyl-2-morpholino-4-oxo-4H-chromene-6-carboxamide]
9 | CC(Nc1cc(F)cc(F)c1)c1cc(C(=O)N2CC(F)C2)cc2c(=O)cc(N3CCOCC3)oc12 (stereo not shown) [Example 4.13, 8-(1-(3,5-difluorophenylamino)ethyl)-6-(3-fluoroazetidine-1-carbonyl)-2-morpholino-4H-chromen-4-one]
24 | CC(Nc1cccc(F)c1C#N)c1cc(C(=O)N(C)C)cc2c(=O)cc(N3CCOCC3)oc12 (stereo not shown) [Example 3.36, 8-(1-(2-cyano-3-fluorophenylamino)ethyl)-N,N-dimethyl-2-morpholino-4-oxo-4H-chromene-6-carboxamide]
10 | CC(Nc1cc(F)ccc1F)c1cc(C(=O)N(C)C)cc2c(=O)cc(N3CCOCC3)oc12 (stereo not shown) [Example 3.15, 8-(1-(2,5-difluorophenylamino)ethyl)-N,N-dimethyl-2-morpholino-4-oxo-4H-chromene-6-carboxamide]
14 | C#Cc1cc(F)cc(N(C)C(C)c2cc(C(=O)N(C)C)cc3c(=O)cc(N4CCOCC4)oc23)c1 (stereo not shown) [Example 3.41, 8-(1-((3-ethynyl-5-fluorophenyl)(methyl)amino)ethyl)-N,N-dimethyl-2-morpholino-4-oxo-4H-chromene-6-carboxamide]
31 | CC(Nc1cc(F)ccc1C#N)c1cc(C(=O)N(C)C)cc2c(=O)cc(N3CCOCC3)oc12 (stereo not shown) [Example 3.35, 8-(1-(2-cyano-5-fluorophenylamino)ethyl)-N,N-dimethyl-2-morpholino-4-oxo-4H-chromene-6-carboxamide]
5 | CCNC(=O)c1cc(C(C)Nc2cc(F)cc(F)c2)c2oc(N3CCOCC3)cc(=O)c2c1 (stereo not shown) [Example 4.17, 8-(1-(3,5-difluorophenylamino)ethyl)-N-ethyl-2-morpholino-4-oxo-4H-chromene-6-carboxamide]
4 | COc1cc(F)cc(NC(C)c2cc(C(=O)N(C)C)cc3c(=O)cc(N4CCOCC4)oc23)c1 (stereo not shown) [Example 3.30, 8-(1-(3-fluoro-5-methoxyphenylamino)ethyl)-N,N-dimethyl-2-morpholino-4-oxo-4H-chromene-6-carboxamide]
4 | CCN(CC)C(=O)c1cc(C(C)Nc2cc(F)cc(F)c2)c2oc(N3CCOCC3)cc(=O)c2c1 (stereo not shown) [Example 4.01, 8-(1-(3,5-difluorophenylamino)ethyl)-N,N-diethyl-2-morpholino-4-oxo-4H-chromene-6-carboxamide]
6 | COc1ccc(F)cc1NC(C)c1cc(C(=O)N(C)C)cc2c(=O)cc(N3CCOCC3)oc12 (stereo not shown) [Example 3.24, 8-(1-(5-fluoro-2-methoxyphenylamino)ethyl)-N,N-dimethyl-2-morpholino-4-oxo-4H-chromene-6-carboxamide]
11 | CC(c1cc(C(=O)N(C)CCO)cc2c(=O)cc(N3CCO[C@H](C)C3)oc12)N(C)c1cc(F)cc(F)c1 (stereo partly drawn) [Example 10.02, 8-(1-((3,5-difluorophenyl)(methyl)amino)ethyl)-N-(2-hydroxyethyl)-N-methyl-2-((R)-2-methylmorpholino)-4-oxo-4H-chromene-6-carboxamide]
8 | CC(c1cc(C(=O)N2CCC(O)CC2)cc2c(=O)cc(N3CCOCC3)oc12)N(C)c1cc(F)cc(F)c1 (stereo not shown) [Example 5.01, 8-(1-((3,5-difluorophenyl)(methyl)amino)ethyl)-6-(4-hydroxypiperidine-1-carbonyl)-2-morpholino-4H-chromen-4-one]
4 | CC(Nc1cccc(Cl)c1)c1cc(C(=O)N(C)C)cc2c(=O)cc(N3CCOCC3)oc12 (stereo not shown) [Example 3.09, 8-(1-(3-chlorophenylamino)ethyl)-N,N-dimethyl-2-morpholino-4-oxo-4H-chromene-6-carboxamide]
5 | C#Cc1cccc(NC(C)c2cc(C(=O)N(C)C)cc3c(=O)cc(N4CCOCC4)oc23)c1 (stereo not shown) [Example 3.20, 8-(1-(3-ethynylphenylamino)ethyl)-N,N-dimethyl-2-morpholino-4-oxo-4H-chromene-6-carboxamide]
4 | CC(Nc1cccc(F)c1F)c1cc(C(=O)N(C)C)cc2c(=O)cc(N3CCOCC3)oc12 (stereo not shown) [Example 3.10, 8-(1-(2,3-difluorophenylamino)ethyl)-N,N-dimethyl-2-morpholino-4-oxo-4H-chromene-6-carboxamide]
114 | Cc1ccc(C#N)cc1NC(C)c1cc(C(=O)N(C)C)cc2c(=O)cc(N3CCOCC3)oc12 (stereo not shown) [Example 3.21, 8-(1-(5-cyano-2-methylphenylamino)ethyl)-N,N-dimethyl-2-morpholino-4-oxo-4H-chromene-6-carboxamide]
4 | CC(Nc1cc(F)cc(F)c1)c1cc(C(=O)NCCO)cc2c(=O)cc(N3CCOCC3)oc12 (stereo not shown) [Example 4.14, 8-(1-(3,5-difluorophenylamino)ethyl)-N-(2-hydroxyethyl)-2-morpholino-4-oxo-4H-chromene-6-carboxamide]
6 | CC(Nc1ccc(F)c(Cl)c1)c1cc(C(=O)N(C)C)cc2c(=O)cc(N3CCOCC3)oc12 (stereo not shown) [Example 3.05, 8-(1-(3-chloro-4-fluorophenylamino)ethyl)-N,N-dimethyl-2-morpholino-4-oxo-4H-chromene-6-carboxamide]
3 | CC(Nc1cc(F)cc(F)c1)c1cc(C(=O)N2CCC(O)CC2)cc2c(=O)cc(N3CCOCC3)oc12 (stereo not shown) [Example 4.09, 8-(1-(3,5-difluorophenylamino)ethyl)-6-(4-hydroxypiperidine-1-carbonyl)-2-morpholino-4H-chromen-4-one]
4 | CC(Nc1cc(F)cc(F)c1)c1cc(C(=O)N2CCNCC2)cc2c(=O)cc(N3CCOCC3)oc12 (stereo not shown) [Example 4.04, 8-(1-(3,5-difluorophenylamino)ethyl)-2-morpholino-6-(piperazine-1-carbonyl)-4H-chromen-4-one]

— patent US8673906B2, “Chromenone derivatives” (AstraZeneca AB, priority 2010, dated 2014)
